# Measurements from the supplement of paper PMC12076712.
# Key:
# Test in all cases: pIC50, kinobeads binding competition
# PIM2 = PIM2 (UniProt Q9P1W9)
# How it was run: (§1)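 Nine compound concentrations were tested, starting at 30 μM in 1:4 steps on live Jurkat cells (60 min, 37 °C, then lysis) or in 1:5 steps on Jurkat lysate or a 1:1:1:1 HEK293/K-562/HepG2/placenta lysate mix (60 min, 4 °C). Kinobeads-bound proteins were digested and quantified with TMT10 LC-MS/MS. pIC50 values are from logistic dose-response fits in the R drc package of fold changes relative to vehicle, from biological duplicates.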
# EPHA4 = EPHA4 (UniProt P54764); settings: cell material: Lysate mix
# Sequence of EPHA4 (P54764 whole entry): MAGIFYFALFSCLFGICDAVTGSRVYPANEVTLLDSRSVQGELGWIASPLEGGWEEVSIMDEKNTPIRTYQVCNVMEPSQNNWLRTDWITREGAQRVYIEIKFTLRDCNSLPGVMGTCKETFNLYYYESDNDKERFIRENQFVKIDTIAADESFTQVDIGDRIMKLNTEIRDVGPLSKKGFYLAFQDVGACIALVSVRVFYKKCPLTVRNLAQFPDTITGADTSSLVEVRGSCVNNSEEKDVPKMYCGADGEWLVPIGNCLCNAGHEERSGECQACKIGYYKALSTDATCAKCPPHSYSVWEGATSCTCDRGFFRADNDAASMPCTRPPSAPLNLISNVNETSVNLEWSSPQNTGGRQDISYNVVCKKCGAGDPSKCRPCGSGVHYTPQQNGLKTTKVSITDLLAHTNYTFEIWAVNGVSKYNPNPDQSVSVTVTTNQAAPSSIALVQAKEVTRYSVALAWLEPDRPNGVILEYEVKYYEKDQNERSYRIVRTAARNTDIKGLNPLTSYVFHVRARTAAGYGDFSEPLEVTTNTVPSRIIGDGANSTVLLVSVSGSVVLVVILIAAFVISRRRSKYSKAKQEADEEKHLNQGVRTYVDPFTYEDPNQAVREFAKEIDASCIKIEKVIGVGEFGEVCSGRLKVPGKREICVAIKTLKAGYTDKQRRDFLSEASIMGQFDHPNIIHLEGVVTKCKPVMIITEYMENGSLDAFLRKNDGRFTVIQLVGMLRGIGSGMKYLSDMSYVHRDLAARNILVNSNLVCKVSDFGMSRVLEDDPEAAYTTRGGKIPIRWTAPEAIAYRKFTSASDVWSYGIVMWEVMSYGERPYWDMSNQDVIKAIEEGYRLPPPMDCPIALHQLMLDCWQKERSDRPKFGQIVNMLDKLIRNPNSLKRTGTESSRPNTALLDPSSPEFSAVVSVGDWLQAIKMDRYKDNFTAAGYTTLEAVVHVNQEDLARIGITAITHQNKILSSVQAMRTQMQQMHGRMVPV
# How it was run: as §1
# ULK3 = biological target: T1, ULK3 (UniProt Q6PHR2)
# T1 sequence (whole entry): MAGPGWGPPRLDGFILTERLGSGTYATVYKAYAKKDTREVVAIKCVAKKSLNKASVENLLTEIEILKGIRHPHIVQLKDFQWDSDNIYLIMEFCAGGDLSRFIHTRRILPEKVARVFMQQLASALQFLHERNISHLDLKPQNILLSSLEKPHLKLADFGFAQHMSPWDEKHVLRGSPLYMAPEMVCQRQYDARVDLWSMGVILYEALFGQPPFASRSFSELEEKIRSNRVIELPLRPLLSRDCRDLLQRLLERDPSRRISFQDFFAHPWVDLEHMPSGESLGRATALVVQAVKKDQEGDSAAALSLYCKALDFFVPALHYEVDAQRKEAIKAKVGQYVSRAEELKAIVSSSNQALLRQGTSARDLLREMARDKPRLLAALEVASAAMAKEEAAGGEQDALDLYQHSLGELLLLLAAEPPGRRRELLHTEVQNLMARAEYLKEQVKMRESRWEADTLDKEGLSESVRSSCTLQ
# How it was run: as §1
# UniProt Q05655 = biological target: UniProt Q05655
# Sequence of UniProt Q05655 (Q05655 whole entry, looked up): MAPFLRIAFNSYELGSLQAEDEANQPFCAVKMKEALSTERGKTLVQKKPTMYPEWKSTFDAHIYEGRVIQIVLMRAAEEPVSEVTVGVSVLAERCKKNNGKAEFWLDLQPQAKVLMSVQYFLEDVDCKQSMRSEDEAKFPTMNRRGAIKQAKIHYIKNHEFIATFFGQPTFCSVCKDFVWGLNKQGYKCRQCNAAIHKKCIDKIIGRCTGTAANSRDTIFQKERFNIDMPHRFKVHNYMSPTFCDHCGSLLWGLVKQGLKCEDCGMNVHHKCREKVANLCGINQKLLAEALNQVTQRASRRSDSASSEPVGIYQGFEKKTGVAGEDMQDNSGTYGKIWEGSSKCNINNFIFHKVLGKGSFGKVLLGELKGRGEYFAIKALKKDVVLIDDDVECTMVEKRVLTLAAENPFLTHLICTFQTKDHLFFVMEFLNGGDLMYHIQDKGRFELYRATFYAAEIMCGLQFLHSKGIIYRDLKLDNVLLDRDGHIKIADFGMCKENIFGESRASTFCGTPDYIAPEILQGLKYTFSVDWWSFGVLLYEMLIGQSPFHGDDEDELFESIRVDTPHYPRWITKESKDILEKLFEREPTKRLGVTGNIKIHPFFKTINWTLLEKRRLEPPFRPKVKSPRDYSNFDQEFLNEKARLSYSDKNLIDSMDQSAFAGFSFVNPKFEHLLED
# How it was run: as §1
# UniProt Q92918 = biological target: UniProt Q92918
# Sequence of UniProt Q92918 (Q92918 whole entry, looked up): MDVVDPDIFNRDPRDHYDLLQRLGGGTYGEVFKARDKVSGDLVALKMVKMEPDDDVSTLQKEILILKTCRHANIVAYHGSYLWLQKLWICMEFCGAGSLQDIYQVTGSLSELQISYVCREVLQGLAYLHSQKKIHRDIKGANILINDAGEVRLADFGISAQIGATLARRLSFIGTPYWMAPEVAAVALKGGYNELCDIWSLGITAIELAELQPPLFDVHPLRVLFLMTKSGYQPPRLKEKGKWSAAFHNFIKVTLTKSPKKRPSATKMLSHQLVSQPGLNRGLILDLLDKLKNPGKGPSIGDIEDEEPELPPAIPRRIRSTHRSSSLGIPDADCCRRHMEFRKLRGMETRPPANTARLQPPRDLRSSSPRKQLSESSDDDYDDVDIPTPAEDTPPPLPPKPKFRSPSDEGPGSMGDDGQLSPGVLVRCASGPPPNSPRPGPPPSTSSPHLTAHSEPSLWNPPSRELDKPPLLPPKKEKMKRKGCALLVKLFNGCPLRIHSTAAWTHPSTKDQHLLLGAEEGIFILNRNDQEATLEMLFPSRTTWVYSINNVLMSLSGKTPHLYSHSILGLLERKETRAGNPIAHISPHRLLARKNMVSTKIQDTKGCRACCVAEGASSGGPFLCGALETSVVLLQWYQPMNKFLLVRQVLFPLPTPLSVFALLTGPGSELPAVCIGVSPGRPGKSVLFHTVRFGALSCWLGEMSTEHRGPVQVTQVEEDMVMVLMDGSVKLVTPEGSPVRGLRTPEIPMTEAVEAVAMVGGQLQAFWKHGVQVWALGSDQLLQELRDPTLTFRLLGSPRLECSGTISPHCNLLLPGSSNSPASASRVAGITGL
# How it was run: as §1
# UniProt P78356 = biological target: T2, UniProt P78356
# T2 sequence (whole entry): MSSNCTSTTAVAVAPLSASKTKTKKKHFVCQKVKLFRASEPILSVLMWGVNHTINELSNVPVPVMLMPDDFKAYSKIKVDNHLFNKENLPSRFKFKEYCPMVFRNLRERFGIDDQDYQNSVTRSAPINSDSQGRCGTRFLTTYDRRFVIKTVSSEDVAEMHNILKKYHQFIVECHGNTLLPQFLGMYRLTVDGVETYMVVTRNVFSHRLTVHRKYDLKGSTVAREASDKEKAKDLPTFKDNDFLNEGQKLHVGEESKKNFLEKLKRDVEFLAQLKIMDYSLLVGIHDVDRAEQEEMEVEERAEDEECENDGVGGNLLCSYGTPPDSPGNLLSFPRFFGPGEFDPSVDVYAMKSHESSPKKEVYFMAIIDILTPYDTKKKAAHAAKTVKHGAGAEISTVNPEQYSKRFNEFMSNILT
# How it was run: as §1
# UniProt P46734 = biological target: T3, UniProt P46734
# T3 sequence (whole entry): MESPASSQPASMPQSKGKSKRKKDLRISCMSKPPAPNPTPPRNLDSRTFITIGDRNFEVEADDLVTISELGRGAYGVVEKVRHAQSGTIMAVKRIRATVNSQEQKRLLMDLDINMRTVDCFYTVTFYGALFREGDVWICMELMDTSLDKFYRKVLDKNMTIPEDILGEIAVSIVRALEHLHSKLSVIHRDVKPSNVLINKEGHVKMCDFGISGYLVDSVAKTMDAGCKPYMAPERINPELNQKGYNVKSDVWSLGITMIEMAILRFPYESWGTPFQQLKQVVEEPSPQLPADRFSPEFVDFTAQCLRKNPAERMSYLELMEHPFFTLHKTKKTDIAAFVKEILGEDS
# How it was run: as §1
# MYLK3 = biological target: T4, MYLK3 (UniProt Q32MK0); settings: cell material: Lysate mix
# T4 sequence (whole entry): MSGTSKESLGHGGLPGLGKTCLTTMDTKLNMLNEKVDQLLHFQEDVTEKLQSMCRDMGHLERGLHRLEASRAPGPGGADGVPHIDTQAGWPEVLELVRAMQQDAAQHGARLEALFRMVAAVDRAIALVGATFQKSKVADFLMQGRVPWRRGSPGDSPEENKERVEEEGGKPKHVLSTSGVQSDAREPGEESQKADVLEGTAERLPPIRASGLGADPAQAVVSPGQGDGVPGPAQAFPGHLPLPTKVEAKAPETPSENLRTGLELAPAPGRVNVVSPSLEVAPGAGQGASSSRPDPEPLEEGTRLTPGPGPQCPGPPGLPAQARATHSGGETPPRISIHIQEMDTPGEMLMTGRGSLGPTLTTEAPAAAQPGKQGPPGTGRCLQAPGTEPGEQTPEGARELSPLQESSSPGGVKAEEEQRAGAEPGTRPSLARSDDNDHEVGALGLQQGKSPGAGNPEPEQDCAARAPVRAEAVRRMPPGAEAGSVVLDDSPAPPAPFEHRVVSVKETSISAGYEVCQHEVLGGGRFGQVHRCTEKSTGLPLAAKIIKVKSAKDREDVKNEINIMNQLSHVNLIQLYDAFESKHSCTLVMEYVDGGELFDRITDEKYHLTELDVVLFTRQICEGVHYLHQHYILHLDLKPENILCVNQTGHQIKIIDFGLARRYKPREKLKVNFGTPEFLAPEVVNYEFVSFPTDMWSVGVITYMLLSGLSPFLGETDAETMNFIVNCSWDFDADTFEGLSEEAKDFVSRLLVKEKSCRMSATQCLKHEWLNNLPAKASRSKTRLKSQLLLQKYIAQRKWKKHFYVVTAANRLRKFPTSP
# How it was run: as §1
# Sequence of PIM2 (Q9P1W9 whole entry, looked up): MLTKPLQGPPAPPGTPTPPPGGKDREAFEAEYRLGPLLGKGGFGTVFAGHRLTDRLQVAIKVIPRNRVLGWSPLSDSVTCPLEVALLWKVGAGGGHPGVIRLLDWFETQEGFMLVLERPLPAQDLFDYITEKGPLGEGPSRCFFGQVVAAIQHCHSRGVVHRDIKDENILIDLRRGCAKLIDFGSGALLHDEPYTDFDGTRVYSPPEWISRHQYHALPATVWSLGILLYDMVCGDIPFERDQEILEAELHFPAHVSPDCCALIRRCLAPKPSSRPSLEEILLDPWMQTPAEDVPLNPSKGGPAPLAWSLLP
Structure (SMILES),pIC50 (PIM2; cell material: Lysate mix),pIC50 (EPHA4),pIC50 (ULK3; cell material: Lysate mix),pIC50 (UniProt Q05655; cell material: Lysate mix),pIC50 (UniProt Q92918; cell material: Lysate mix),pIC50 (UniProt P78356; cell material: Lysate mix),pIC50 (UniProt P46734; cell material: Lysate mix),pIC50 (MYLK3),pIC50 (UniProt P46734; cell material: Jurkat lysate),pIC50 (PIM2; cell material: Jurkat lysate),pIC50 (ULK3; cell material: Jurkat cells),pIC50 (ULK3; cell material: Jurkat lysate),pIC50 (UniProt Q05655; cell material: Jurkat cells),pIC50 (UniProt Q05655; cell material: Jurkat lysate),pIC50 (UniProt Q92918; cell material: Jurkat cells),pIC50 (UniProt Q92918; cell material: Jurkat lysate),pIC50 (UniProt P78356; cell material: Jurkat lysate),pIC50 (UniProt P46734; cell material: Jurkat cells)
Cc1cc(Nc2cc(C(=O)NCCNC(=O)OC3CC/C=C/CCC3)nc(N3CCN(Cc4ccc(S(=O)(=O)F)cc4)CC3)n2)n[nH]1 (stereo unspecified),< 4.52,< 4.52,< 4.52,< 4.52,< 4.52,< 4.52,< 4.52,< 4.52,,,,,,,,,,
O=C(NCCNC(=O)c1cc(Nc2cc(C3CC3)[nH]n2)nc(N2CCN(Cc3ccc(S(=O)(=O)F)cc3)CC2)n1)OC1CC/C=C/CCC1 (stereo unspecified),< 4.52,< 4.52,,< 4.52,< 4.52,< 4.52,< 4.52,< 4.52,< 4.52,< 4.52,5.86,< 4.52,5.19,< 4.52,5.32,< 4.52,< 4.52,< 4.52
C#CCNC(=O)c1cc(Nc2cc(C3CC3)[nH]n2)nc(N2CCN(Cc3ccc(S(=O)(=O)F)cc3)CC2)n1,< 4.52,< 4.52,6.39,< 4.52,5.9,< 4.52,4.87,< 4.52,,< 4.52,6.44,5.88,5.53,< 4.52,5.88,5.35,< 4.52,5.54

# More lines, main results first:
pIC50 (PIM2; cell material: Lysate mix),pIC50 (EPHA4),pIC50 (ULK3; cell material: Lysate mix),pIC50 (UniProt Q05655; cell material: Lysate mix),pIC50 (UniProt Q92918; cell material: Lysate mix),pIC50 (UniProt P78356; cell material: Lysate mix),pIC50 (UniProt P46734; cell material: Lysate mix),pIC50 (MYLK3),pIC50 (UniProt P46734; cell material: Jurkat lysate),Structure (SMILES),pIC50 (PIM2; cell material: Jurkat lysate),pIC50 (ULK3; cell material: Jurkat cells),pIC50 (ULK3; cell material: Jurkat lysate),pIC50 (UniProt Q05655; cell material: Jurkat cells),pIC50 (UniProt Q05655; cell material: Jurkat lysate),pIC50 (UniProt Q92918; cell material: Jurkat cells),pIC50 (UniProt Q92918; cell material: Jurkat lysate),pIC50 (UniProt P78356; cell material: Jurkat lysate),pIC50 (UniProt P46734; cell material: Jurkat cells)
< 4.52,< 4.52,5.49,< 4.52,4.77,< 4.52,< 4.52,< 4.52,,C#CCNC(=O)c1cc(Nc2cc(C)[nH]n2)nc(N2CCN(Cc3ccc(S(=O)(=O)F)cc3)CC2)n1,,,,,,,,,
< 4.52,< 4.52,5.63,< 4.52,4.78,< 4.52,< 4.52,< 4.52,,CCNC(=O)c1cc(Nc2cc(C)[nH]n2)nc(N2CCN(Cc3ccc(S(=O)(=O)F)cc3)CC2)n1,,,,,,,,,
< 4.52,< 4.52,6.27,< 4.52,5.8,< 4.52,4.9,4.69,,CCNC(=O)c1cc(Nc2cc(C3CC3)[nH]n2)nc(N2CCN(Cc3ccc(S(=O)(=O)F)cc3)CC2)n1,,,,,,,,,
